Measurements taken from paper PMC6837752, “Effectiveness of four types of neuraminidase inhibitors approved in Japan for the treatment of influenza” (PLoS ONE, 2019).
Values joined by “and” are separate entries in the source; they are usually repeats but may differ in a detail not shown here. Equal values may be shown once.

Key:
[1] = test system: H275Y mutated (oseltamivir-resistant) influenza A/H1N1pdm09 virus; details: human, in vivo
[2] = molecular target: neuraminidase of H275Y mutated influenza A/H1N1pdm09 virus isolates (Influenza A virus (H1N1pdm09), UniProt C3W5S3, H275Y); assay type: biochemical; details: read-out: 50% inhibitory concentration
[3] = test system: oseltamivir and peramivir-resistant influenza A/H1N1pdm09; details: five cases, treatment with oseltamivir or peramivir; cited from earlier work

Compound	Time to fever alleviation [1] [h]	Time until fever subsided from the start of treatment [3] [h]	other results
CC(=O)N[C@H]1[C@H]([C@H](O)[C@H](O)CO)OC(C(=O)O)=C[C@@H]1N=C(N)N [Zanamivir, zanamivir]	≤ 48	–	–
peramivir	–	≤ 48	IC50 [2]: 0.0247 µM and 0.0221 µM and 0.0298 µM and 0.0191 µM and 0.0187 µM and 0.0224 µM and 0.0233 µM
CCOC(=O)C1=C[C@@H](OC(CC)CC)[C@H](NC(C)=O)[C@@H](N)C1 [Oseltamivir, oseltamivir]	–	≤ 48	Average fever duration [1]: 89 h and 89 ± 47 h; Patients with fever alleviated within 48 hours [1]: 40%; Patients with prolonged fever, which continued for more than 100 hours [1]: 60%
[H]/N=C(\N)N[C@H]1C=C(C(=O)O)O[C@@H]([C@H](OC)[C@H](O)CO)[C@@H]1NC(C)=O [Laninamivir, laninamivir]	≤ 48	–	–
